From US20080299123A1, “TREATMENT OF CHEMOTHERAPY- OR RADIOTHERAPY-RESISTANT TUMORS” (Deutsches Krebsforschungszentrum Stiftung des offentlichen …, priority 2006, published 2008)

Legend:
L1CAM = L1CAM expression in PT45-P1res cells (western blotting, flow cytometry, real-time PCR); assay type: cell-based, human; conditions: inhibitor 10 μmol/L, 24 hours
Description: After washing in PBS, cells grown in 6-well culture plates were detached with 5 mmol/L EDTA in PBS and then washed with PBS once again. Blocking was conducted in 1% BSA/PBS for 60 min. at room temperature followed by incubation with the anti L1CAM antibody L1-11A or an isotype matched control antibody (1:1000, in 1% BSA/PBS) at 4° C. overnight. Then, cells were washed three times in PBS followed by incubation (60 min, 37° C.) with a goat-anti mouse antibody conjugated with Alexa flour 488 (Dianova, Hamburg, Germany) diluted 1:500 in 1% BSA/PBS. After washing in PBS, cells were resuspended in 500 μL PBS and analysed by fluorescence flow cytometry.
Cells were seeded into 6 well and 12 well plates, respectively, and transfected or treated as indicated. Then, cells were washed once with PBS and lysed with 1 volume of 2×SDS sample buffer (128 mmol/L Tris-Base, 4.6% SDS, 10% glycerol). Samples were heated for 5 minutes at 95° C. and put on ice for 2 minutes. Protein concentrations were determined using the Dc Protein assay (BioRad). Ten μg of protein adjusted to an appropriate volume of SDS sample buffer containing 0.2 mg/mL bromphenolblue (Serva, Heidelberg, Germany) and 2.5% β-mercaptoethanol (Biomol, Hamburg, Germany) were submitted to electrophoresis on a 4-20% ProGel-Tris-glycin-gel (Anamed, Darmstadt, Germany) and immunoblotting was performed as described previously (Arlt et al, 2001). For detection of L1CAM, a monoclonal antibody (clone UJ127 from Acris Antibodies) was diluted at a concentration of 0.4 μg/mL in 5% nonfat milk powder and 0.05% Tween in TBS (blotto) and incubated overnight at 4° C. For detection of the cytoplasmic domain of L1CAM, the pcytL1 antibody (Mechtersheimer et al., 2001) was used at a concentration of 1 μg/mL in blotto and incubated overnight at 4° C. As control of equal protein load, a polyclonal rabbit antibody for HSP90 (Santa Cruz, Heidelberg, Germany) was diluted 1:2000 in blotto. The mouse anti CD51 antibody from Beckman Coulter GmbH (Krefeld, Germany) was used at a concentration of 1:500 in blotto for detection of human αv integrin. Incubation with the primary antibodies was performed overnight at 4° C. For detection of the primary antibodies, anti-mouse and anti-rabbit HRP-linked antibodies (Cell Signaling), respectively, were used at a dilution of 1:2000 in blotto-TBST at room temperature for 1 hour. After washing in TBST, blots were developed using the LumiGlo peroxidase detection kit (Cell Signaling).
2 μg of total RNA were reverse-transcribed into single-stranded cDNA, as described previously (Schafer et al., 1999). Two μL of cDNA and 0.2 μmol/L gene-specific primers were adjusted with RNAse-free water to a volume of 15 μL. To this mixture, 15 μL of iQ SYBR Green Supermix (BioRad) were added. Primers for the detection of L1CAM (Gavert et al., 2005) were used under the following conditions: 95° C./1 min; 95° C./1 min, 52° C./30 see, 72° C./30 see for 40 cycles; 72° C./10 min. Primers for the detection of iNOS were from Biosource (Ratingen, Germany) and used under the following PCR conditions: 95° C./5 min; 95° C./45 sec, 60° C./45 sec, 72° C./45 sec for 40 cycles; 72° C./10 min. For control, β-actin was amplified in parallel using primers from BD Biosciences Clontech. […] Data were collected during annealing steps and were further analysed by using the i-Cycler iQ Optical system software (BioRad). All samples were analysed in duplicates and data are expressed as amount of mRNA in arbitrary units.

PT45-P1res cells = experiment: Caspase-3/-7 assay in PT45-P1res cells; assay type: cell-based, human; conditions: inhibitor 10 μmol/L, 20 μg/mL etoposide 24 hours
Description: (a) PT45-P1 res cells were transfected with control siRNA or with two L1CAM specific siRNAs. Western blotting for the detection of full-length L1CAM or of HSP90 as a control for equal protein load was performed (upper panel). In parallel, siRNA transfected PT45-P1res cells were treated with 20 μg/mL etoposide or not for 24 hours and caspase-3/-7 activity was determined. (b) siRNA transfected PT45-P1res cells were subjected to L1CAM immunostaining (L1-11A antibody) or staining with an isotype matched control antibody followed by flow cytometry. One representative histogram is shown. (c) siRNA transfected PT45-P1res cells were analysed by western blotting for the detection of full-length L1 CAM, αv-integrin or HSP90 (d) After overnight siRNA transfection, cells were either left untreated or were either treated with 20 μg/mL etoposide or with 5 μg/mL gemcitabine for 24 hours, followed by either AnnexinV/PI staining and flow cytometry (AnnexinV positive cells over basal) or by caspase-3/-7 assay (n-fold induced caspase-3/-7 activity of basal). (e) PT45-P1res cells were either left untreated (w/o) or were treated with 20 μg/mL etoposide in the absence (w/o) or presence of either 5 μg/mL anti L1CAM antibody (Clone L1-11A) or 5 μg/mL isotype matched control antibody. After 24 hours, cells were analysed by AnnexinV/PI staining or by caspase-3/-7 assay. Means±SD from three independent experiments are shown. * indicates p<0.05.
As described elsewhere (Sebens Müerköster et al., 2006), apoptosis was determined by staining with annexinV/propidium iodide (Biocarta, Hamburg, Germany) and subsequent fluorescence flow cytometry (GalaxyArgon Plus; DAKO Cytomation, Hamburg, Germany) using the FLOMAX software, and by the detection of caspase-3/-7 activity using a homogeneous luminescent assay (Promega, Mannheim, Germany). All samples were measured in duplicates.
For L1CAM transfection, PT45-P1 cells were seeded into 6 well plates (2×10^5 cells/well), were grown overnight, followed by transfection with 5 μL/well DIMRIE reagent (Invitrogen) and 0.6 μg/well of the following plasmids: pcDNA3.1 (mock) or pcDNA3.1-L1CAM (L1CAM). Upon transfection for 18 hours, 1 mL medium containing 20% FCS was added and cells were left untreated or were treated as indicated for further 24 hours. For knock down of L1CAM, PT45-P1res cells were seeded into 12 well plates (1×10^5 cells/well), were grown overnight followed by transfection with 12 μL/well RNAiFect reagent (Invitrogen) and 2 μg/well of either Stealth negative control siRNA (Invitrogen) or Stealth L1CAM siRNA (Invitrogen). After overnight transfection, cells were either left untreated or treated as indicated for further 24 hours.

CC(C)C[C@H](CC(=O)NO)C(=O)N[C@@H](Cc1ccc2ccccc2c1)C(=O)N[C@@H](C)C(N)=O [TAPI-0]
L1CAM expression (full-length 220 kDa and 32 kD fragment) (L1CAM): neither of the inhibitors changed L1 CAM expression
apoptosis induction after etoposide treatment (caspase-3/-7) (PT45-P1res cells): did not significantly affect apoptosis induction after etoposide treatment
